Laboratory results: publication PMC5078090, “In vivo screening and discovery of novel candidate thalidomide analogs in the zebrafish embryo and chicken embryo model systems” (Oncotarget, 2016)
“Also recorded” adds a separate entry of the source.

Assays:
[1] = system: chicken embryos; assay: In ovo chicken embryo teratogenicity assay; format: in vivo, white leghorn chicken; conditions: for Lowest effective concentration, Chicken assay: HH stage 17-18 embryos, where no activity was seen the concentration shown is the lowest screened; for Defects in chicken embryo development (text and figure legend): applied at HH stage 17-18, result in words; for Teratogenicity in these assays: chicken and zebrafish embryo assays together, result in words; for Damage observed: HH stage 17-18 chicken embryos, 100 μg/mL
Description: Compounds of interest were screened in chicken and/or zebrafish embryos (Figure 4), to determine if these compounds are teratogenic. The chicken embryo is well established as a model to determine the action of compounds upon development.
Fertilized white leghorn chicken embryos were incubated at 38°C and staged according to the Hamburger and Hamilton (HH) stages of development. Embryos were tested at HH stage 17-18 (day 2.5). Following membrane removal test compounds or vehicle control solutions were applied over the embryo. The eggs were sealed and the development of the embryos was monitored up to HH stage 30 (E9). A minimum of 3 embryos were used per concentration, per drug.

[2] = system: fli1:EGFP zebrafish embryos; assay: fli1:EGFP zebrafish embryo angiogenesis assay (intersegmental vessel outgrowth and number); format: in vivo; conditions: for minimal effective concentration: Danio rerio, 24 h, 24 hpf embryos exposed 24 h, screened 1-200 μg/mL, where no activity was seen the concentration shown is the lowest screened; for Anti-angiogenic activity (loss of ISVs or inhibition of ISV outgrowth): fli1:EGFP embryos, 24 h incubation, result in words
Description: To determine if our novel thalidomide analogs (Figure 1) had any effect on in vivo angiogenesis, we used fli1:EGFP embryos which express green fluorescent protein (GFP) on endothelial cells throughout development. Embryos were allowed to develop for 24 hours, then exposed to either vehicle or a compound of interest at the concentration range of 1 to 200 μg/mL. During this time the vasculature is rapidly expanding and developing new, naive intersegmental vessels (ISVs). The embryos were imaged after 24 hours of incubation with the drug (Figure 2A). […] We also observed that the potency of each compound varied.
Figure 2 The effect of novel thalidomide analogs on vessel length fli1:EGFP zebrafish were incubated with vehicle or compounds for 24 hours, at which point vessel outgrowth and number were measured. A. Images of zebrafish exposed to the vehicle or test compounds. […] Treatment with C4 (1.5 μg/mL), C18 (50 μg/mL), C81 (50 μg/mL), C82 (5 μg/mL), C83 (20 μg/mL) and C84 (50 μg/mL) show reduction in vessel out growth (white arrow) and in some cases loss of vessel (white asterisks). B. Stalk length & C. stalk number are reduced. Compounds are shown at the lowest concentration producing an effect. The data represent the mean + the standard error of the mean.
Zebrafish embryos were treated with analogs as previously described. Briefly, fli1:EGFP embryos were collected and embryos were allowed to develop for 24 hours. Embryos were dechorionated manually and exposed to test compounds or vehicle control (0.1% DMSO) for a further 24 hours. Embryos were anesthetized with 0.05% MS222 (Tricaine) (Sigma Aldrich) and live visualization of blood vessels was carried out.
(§1) A broad series of novel thalidomide-based compounds were chemically synthesized (WL, NHG and WDF, NIH), dissolved in DMSO, stored in stock concentrations between 10-100 mg/mL, and used at a final working DMSO concentration of 0.1%. The chemical structures of lead compounds of interest were confirmed by chemical characterization (purity >99.5%). Compounds were screened across a range of concentrations from 1-200 μg/mL to determine the lowest effective concentration.

[3] = system: Tg(MPO::EGFP)^114 zebrafish; assay: Tg(MPO::EGFP)^114 zebrafish tail fin clip assay of neutrophil migration to the wound site; format: in vivo; conditions: for minimal effective concentration: Danio rerio, Neutrophil, fin clipped at 72 hpf, imaged at 24 h, screened 1-200 μg/mL, where no activity was seen the concentration shown is the lowest screened; for Effect on neutrophil migration to the wound site (anti-inflammatory activity): fin clipped 72 hpf embryos, result in words
Description: To assess the immunomodulatory effects of the thalidomide analogs across the concentration range used in the previous assay, the transgenic zebrafish line Tg(MPO::EGFP)^114 was used. These embryos express GFP tagged myeloperoxidase, marking neutrophils during the inflammatory response, for example following injury. […] This allowed us to subsequently assess the anti-inflammatory activity of each compound by immersing embryos in the test drug or vehicle. The embryos were examined for migration of neutrophils to the wound site. In comparison to control embryos (Figure 3A) compounds with anti-inflammatory properties had reduction of at least 50% of neutrophils recruited to the wound site (Figure 3). […] We also screened the previously identified six anti-angiogenic compounds of interest in the Tg(MPO::EGFP)^114 line.
Figure 3 The effect of thalidomide analogs on the inflammatory response to wound healing A. Zebrafish (72 hpf) embryos transgenic for a fluorescently tagged neutrophil marker Tg(MPO::EGFP)^114 were fin clipped to induce an inflammatory response and exposed to vehicle or a test compound. Broken line indicates the tail fin with cut and area of the wound site. […] The data represent the mean + the standard error of the mean.
Tg(MPO::EGFP)^114 embryos were tail fin clipped as previously detailed and incubated with test compounds or vehicle control at 72 hpf. Fish were imaged at 24 hours and the number of migratory neutrophils present at the wound site were counted. Compounds inducing an at least 50% reduction of neutrophils to the wound site were considered to have anti-inflammatory properties in this system. All larvae were assessed for viability and morphological integrity. A minimum of 10 embryos were used per concentration per drug. Error bars represent standard error of the mean.
as §1

[4] = system: TNF-α; design: method as in PMID 22642825, PMID 22277195; conditions: cited from earlier work
[5] = system: WT Zebrafish; assay: WT zebrafish embryo developmental defect (teratogenicity) screen; format: in vivo; conditions: for Eye development / eye diameter in zebrafish embryos / Pectoral fin development / fin length in zebrafish embryos: Figure 4, result in words; for Lowest effective concentration, WT Zebrafish assay: screened 1-200 μg/mL, where no activity was seen the concentration shown is the lowest screened
[6] = system: TNF-α; design: method as in PMID 22642825, PMID 22277195; conditions: rats challenged with systemic LPS; cited from earlier work

Structure (SMILES)	Lowest effective concentration, Chicken assay [1]	Defects in chicken embryo development (text and figure legend) [1]	Teratogenicity in these assays [1]	minimal effective concentration [2]	Anti-angiogenic activity (loss of ISVs or inhibition of ISV outgrowth) [2]	minimal effective concentration [3]	Effect on neutrophil migration to the wound site (anti-inflammatory activity) [3]	Effect on LPS-induced elevations in TNF-α, cultured RAW 264.7 cells [4]	Eye development / eye diameter in zebrafish embryos [5]	Pectoral fin development / fin length in zebrafish embryos [5]	Lowest effective concentration, WT Zebrafish assay [5]	Effect on LPS-induced elevations in TNF-α, plasma and brain of rats [6]	Migration of neutrophils relative to control ([3]; fin clipped embryos, Figure 3)	Damage observed [1]	Lowest effective anti-angiogenic concentration, fli1:EGFP assay (molar) ([2]; inhibition of vessel outgrowth and number, 24 h exposure)
O=C1NC(=S)CCC1N1C(=O)c2ccccc2C1=S (centres unmarked) [Compound C2, 2,3-dihydro-2-(2-oxo-6-thioxo-3-piperidinyl)-3-thioxo-1H-isoindol-1-one]	100 µg/mL	no effect	non-teratogenic	10 µg/mL	without anti-angiogenic activities	10 µg/mL	reduced neutrophil migration; also recorded: significant anti-inflammatory action	potently lower lipopolysaccharide (LPS)-induced elevations in TNF-α	normal eye development	normal	10 µg/mL	potently lower lipopolysaccharide (LPS)-induced elevations in TNF-α			
O=C1CCC(N2C(=O)c3ccncc3C2=O)C(=O)N1 (centres unmarked) [Compound C58, 5-Aza-thalidomide]	100 µg/mL	no effect	non-teratogenic	10 µg/mL	without anti-angiogenic activities	5 µg/mL	reduced neutrophil migration				5 µg/mL		10 % of the control		
O=C1c2ccccc2C(=O)N1c1nc2ccc(C(F)(F)F)cc2s1 [Compound C59]		no effect	non-teratogenic	10 µg/mL	without anti-angiogenic activities	100 µg/mL	reduced neutrophil migration				100 µg/mL				
CC(N1Cc2c(N)cccc2C1=O)C12CC3CC(CC(C3)C1)C2 (centres unmarked) [Compound C81]	100 µg/mL	microphthalmia; also recorded: growth reduction and hemorrhaging throughout head			anti-angiogenic activity	50 µg/mL				reductions	10 µg/mL			Hemorrhaging, microopthalmia,	161.07 µM
O=C1c2cccc([N+](=O)[O-])c2CN1C1C2CC3CC(C2)CC1C3 (centres unmarked) [Compound C82]	100 µg/mL	limb and digit defects			anti-angiogenic activity	5 µg/mL	significantly reduce neutrophil migration		reductions in eye diameter	reductions	5 µg/mL			Limb reduction defect	
Nc1cccc2c1CN(C1C3CC4CC(C3)CC1C4)C2=O (centres unmarked) [Compound C83]	100 µg/mL	hemorrhaging; also recorded: abnormal blood vessels and necrotic-like regions in the surrounding yolk sac membrane			anti-angiogenic activity	20 µg/mL			reductions in eye diameter		10 µg/mL			Necrotic YSM, hemorrhaging	
O=C1c2cccc([N+](=O)[O-])c2CN1C12CC3CC(CC(C3)C1)C2 [Compound C84]	100 µg/mL	hemorrhaging			anti-angiogenic activity	10 µg/mL			reductions in eye diameter		10 µg/mL			Hemorrhaging	
